In one data set the test system is GSH:GSSG ratio. As to the kind of experiment: GSH:GSSG ratio in isolated blood lymphocytes of dogs fed dl-alpha lipoic acid (Example 3). In kind it is in vivo. The text has this:
(§1) 30 adult, random source, dogs were utilized for this study. Dogs were at least 10 months of age, not pregnant, not lactating and of reasonable body weight prior to start of test. Animals were randomized into 5 groups for dietary treatment with 3 males and 3 females per each group.
All dogs were fed a control food (0 ppm dl-alpha-lipoic acid added) that met or exceeded all recommendations for nutrients as proposed by the American Association of Feed Control Officials (AAFCO 2000) during a 2 week prefeeding period (Table 1). Following the prefeeding period dogs were randomized into 5 treatment groups with one of the following dl-alpha lipoic acid target-inclusions (dry matter basis): 0 ppm, 150 ppm, 1500 ppm, 3000 ppm, 4500 ppm. In all diets, control and alpha lipoic acid, Vitamin E was added and was present at a level of 600-1000 International Units and Vitamin C was added at levels of 100-200 ppm.
Blood was collected aseptically for complete blood count, and blood biochemistry analysis 2 weeks prior to start and again at 0, 28, 56, 84, 112, 140 and 168 days of the study. In addition, 15 ml of whole blood was collected for isolation of lymphocytes at day 0, 28 and 84 of the dietary intervention.
Heparainzed whole blood was layered onto a 50 ml Accuspin conical centrifuge tube (Sigma Chemical) and an equal volume of Phosphate buffered saline (PBS) was added. Samples were centrifuged at 700 g for 30 minutes without brake. The monocyte layer was harvested, transferred to a 15 ml conical centrifuge tube, resuspended in 1-3 ml of PB, and centrifuged as before (First wash). A second wash was performed as the first wash. Finally, cells were harvested and suspended in perchloric acid (10%w/v) and frozen at −−70C until analysis.
Samples were transferred from −70° C. freezer into a cooler with dry ice in it. Vials were centrifuged at 12,000 rpm for 5 minutes in a refrigerated centrifuge. An aliquot of supernatant for glutathione (GSH) analysis was transferred to a conical test tube.
Derivatization of the acid soluble extracts was by the method of Reed and coworkers (Fariss et al) as modified by Jones (Jones et al)
Briefly, 150 μl extract or external standards were added into a 1.5 ml eppendorf tube followed by addition of 20 μl γ-glu-glu internal standard and 50 μl IAA added followed by mixing. The solution was adjusted to pH ˜10 (purple color) by using KOH—KHCO3 working solution. Solutions were incubated 1 hr. under room temperature in the dark. Sanger's reagent was added at the same volume as of the total volume and the solution was incubated overnight (20 hrs) in the dark at room temperature.
After incubation, the solution was centrifuged at 12000 rpm for 5 minutes with the supernatant transferred into another 1.5 ml eppendorf tube.
Solvents and separation conditions were as described (Fariss, Jones). Levels of GSH and GSSG were quantified relative to authentic standards. Gamma-glutamyl-glutamate was used as an internal standard to assess derivatization efficiency.
Comparison of values for clinical chemistry, hematology and body weights vs baseline were analyzed by way of paired t-test on SAS for windows with significance set at P<0.05. Means of values at each measured time point were separated by a one-way ANOVA with significance set at P<0.05. The difference in GSH:GSSG between day 84 and baseline were analyzed between groups by way of SAS for windows in a one-way ANOVA with significance set at P<0.05.

The subject of another data set is dogs. Nature of the data set: Feeding safety study of dl-alpha lipoic acid in food: body weight, physical examination, serum biochemistry, hematology (Example 3). Format: in vivo.
Text: as §1
All dogs were fed a control food (0 ppm dl-alpha-lipoic acid added) that met or exceeded all recommendations for nutrients as proposed by the American Association of Feed Control Officials (AAFCO 2000) during a 2 week prefeeding period (Table 1). […]
Test foods were the sole source of nutrients except for water. […] After dogs were selected and initial body weights taken, a food dose was calculated for each dog based on the expected ME of the food. Initial food dose calculations were based on the maintenance energy requirement (MER) for the dog modified by a factor to account for normal activity as calculated by the following formula: […]
Dogs were weighed weekly and had food doses adjusted as needed in order to feed enough food to maintain their optimal body weight. Optimal body weight was determined to be 3 on a 5 point scale. […] All measures of body weight and food intake were recorded. […]
Comparison of values for clinical chemistry, hematology and body weights vs baseline were analyzed by way of paired t-test on SAS for windows with significance set at P<0.05. […]

The values that follow come from patent US20020115710A1, “Composition and method” (priority 2000, published 2002).

Turning to `O=C(O)CCCCC1CCSS1` (racemic) [dl-alpha-lipoic acid], the “Difference in GSH:GSSG ratio-d 0 to d 84 compared to baseline food” value was determined as 70 ± 20 in the data set with GSH:GSSG ratio (150 ppm inclusion in extruded food, N 6); 24 ± 7 in the data set on GSH:GSSG ratio (1500 ppm inclusion in extruded food, N 6); 10 ± 4 in the data set on GSH:GSSG ratio (3000 ppm inclusion in extruded food, N 4); 50 ± 36 in the data set on GSH:GSSG ratio (4500 ppm inclusion in extruded food, N 4). Also, the “effect on reduced glutathione (GSH) to oxidized glutathione (GSSG) ratio” value in the data set on GSH:GSSG ratio (84 days of feeding in diet) is “improves”. Moreover, in the data set on dogs (dog, in vivo), the “safety of chronic feeding in diet” value is given as “safe”. Besides, the “vomiting during the study” value in the data set on dogs (dogs, no trend attributable to lipoic acid) was “Occasional vomiting was observed in several animals”.
